The test system of assay [1] is Escherichia coli. Nature of the assay: Antibacterial activity against Escherichia coli AS19 assessed as growth inhibition after 10 hrs by spectrophotometry. It is filed as functional, organism-based. The note with it: AS19, 10 h.
Assay [2] deals with Staphylococcus aureus. Nature of the assay: Antibacterial activity against […] Staphylococcus aureus ATCC 43300 assessed as growth inhibition after 10 hrs by spectrophotometry. The note with it: ATCC 43300, 10 h. Format: functional, organism-based.
Assay [3] deals with Staphylococcus aureus. Nature of the assay: Antibacterial activity against methicillin-resistant Staphylococcus aureus ATCC BAA1680 assessed as growth inhibition after 10 hrs by spectrophotometry. The conditions noted are these: ATCC BAA1680, 10 h. Format: functional, organism-based.
The nature of assay [4]: Inhibition of Escherichia coli recombinant MetAP expressed in Escherichia coli BL21(DE3) assessed as production of fluorescent aminomethylcoumarin using Met-AMC as substrate by fluorescence assay in presence of […].
The subject of assay [5] is Escherichia coli. Put plainly: Inhibition of MetAP in Escherichia coli AS19 harboring pBACE plasmid assessed as cellular accumulation of unprocessed GST after 50 hrs by mass spectrometry.

≈ marks a conversion by molar mass, not a printed value. Calls of active or inactive are those of the source. No cut-off for these calls is given here.

By MIC90 is commonly meant the lowest concentration that inhibits either 90% of growth or 90% of the strains tested, depending on the study. The IC50 is the concentration at which inhibition is half-maximal.

Consider `Cc1sc(C)c(-c2ccc(O)c(O)c2)c1Br`, for which the MIC90 in assay [1] turned out to be 5 µg/mL (≈ 16.7 µM); in assay [2], 18 µg/mL (≈ 60.2 µM); in assay [3] it was 13 µg/mL (≈ 43.5 µM). In addition, the IC50 in assay [2] was 12.2 µM; in assay [3], 23.2 µM; in assay [4] it was 63.6 µM.

As to `Oc1ccc(-c2cc(Cl)sc2Cl)cc1O`, the values for the MIC90 in assay [1], in assay [2] and in assay [3] were 3 µg/mL (≈ 11.5 µM), 4 µg/mL (≈ 15.3 µM) and 2 µg/mL (≈ 7.66 µM), respectively. Further, the IC50 stood at 11.3 µM in assay [2], 4.6 µM in assay [3] and 51.9 µM in assay [4]. The inhibition result in assay [5] was “Active”.

Consider `Oc1ccc(-c2ccsc2)cc1O`, for which the MIC90 in assay [1] was 15 µg/mL (≈ 78 µM); in assay [2], 11 µg/mL (≈ 57.2 µM); in assay [3], 13 µg/mL (≈ 67.6 µM). In addition, the IC50 stood at 11.7 µM in assay [2], 41.7 µM in assay [3] and 38.4 µM in assay [4].

On to `Oc1ccc(-c2sc(Cl)c(Cl)c2Cl)cc1O`, for which the IC50 came out at 2.3 µM in assay [1], 2.8 µM in assay [2], 1 µM in assay [3] and 22.1 µM in assay [4]. In addition, the MIC90 in assay [2] was 1 µg/mL (≈ 3.38 µM); in assay [3] it was 0.7 µg/mL (≈ 2.37 µM).

For `Oc1ccc(-c2sccc2Cl)cc1O`, the IC50 in assay [1] turned out to be 23.3 µM; in assay [2], 25.8 µM; in assay [3], 63.8 µM; in assay [4], 15.4 µM. The MIC90 was found to be 5 µg/mL (≈ 22.1 µM) in assay [1], 12 µg/mL (≈ 52.9 µM) in assay [2] and 25 µg/mL (≈ 110 µM) in assay [3]. Further, the inhibition entry in assay [5] is “Active”.

Turning to `CCCc1ccsc1-c1ccc(O)c(O)c1`, the figures for the MIC90 in assay [1], in assay [2] and in assay [3] were 4 µg/mL (≈ 17.1 µM), 16 µg/mL (≈ 68.3 µM) and 11 µg/mL (≈ 46.9 µM), respectively. Further, the IC50 in assay [2] amounted to 13.9 µM; in assay [3], 33.4 µM; in assay [4], 49.5 µM.

Regarding `CCCCc1ccsc1-c1ccc(O)c(O)c1`, the MIC90 worked out at 5 µg/mL (≈ 20.1 µM) in assay [1], 5 µg/mL (≈ 20.1 µM) in assay [2] and 4 µg/mL (≈ 16.1 µM) in assay [3]. Moreover, the values for the half-inhibitory concentration (IC50) in assay [2], in assay [3] and in assay [4] were 8.2 µM, 12.4 µM and 37.3 µM, respectively.

The values above are taken from ChEMBL document CHEMBL1806415, “Growth inhibition of Escherichia coli and methicillin-resistant Staphylococcus aureus by targeting cellular methionine aminopeptidase” (Eur J Med Chem, 2011).
